From patent US20040152126A1, “Methods of screening for cox-2 inhibitors” (priority 1999, published 2004)

Experiments:
[1] = tested on: endogenous cox-2 gene (mRNA of cox-2); assay: RT-PCR analysis of the expression of cox-2 mRNA in Jurkat cells; type: cell-based, human; settings: PMA 10 ng/ml alone or with calcium ionophore A23187 1 μM, FIG. 3(A)
Description: In order to study the regulation of the expression of the endogenous cox-2 gene in the Jurkat cell line, the analysis of the expression of its mRNA was performed by experiments with RT-PCR. At the same time, in order to validate the prom2-1906-LUC construct and to check that the regulation of the cloned promoter is as expected, experiments were carried out of transitory transfection of the prom2-1906-LUC construct using the Jurkat cell line. In both experiments, the cells were treated with compounds that stimulate and inhibit the induction of the promoter of cox-2.
Treatment with activator compounds were carried out using the phorbol ester PMA (Phorbol 12-Myristate 13-Acetate) (10 ng/ml) (Sigma) and the combination of PMA and Calcium ionophore A23187 (1 μM) (Sigma), hereinafter PMA+Ion.
Treatment with drugs that inhibit the induction by PMA+Ion were carried out with cyclosporin A (CsA) (100 ng/ml) or the synthetic glucocorticoide Dexamethasone (Dex) (1 μM) (Sigma).
The results obtained from the analysis by RT-PCR of the expression of mRNA of cox-2 in Jurkat cells are presented in FIG. 3, where the following can be observed:
As a control in both cases, the result obtained for the non-inducible mRNAs of the cox-1 isoform and for the glycerol aldehyde phosphate dehydrogenase (GAPDH) are shown.

cox-2 promoter = assay: Luciferase activity in stable Jurkat-1906LUC clones (Jurkat-C3-, F9-, C7-1906LUC)
Description: The transfection was carried out by means of the technique of electroporation in cuvettes of 0.4 cm (BioRad) with 15×10^6 cells in 0.5 ml of complete medium [RMPI medium supplemented with 10% of foetal serum, L-glutamine 2mM and a mixture of antibiotics] […] After this period, the cells were electroporated in a Gene Pulser II (BioRad) apparatus at 1.500 μFaradays of capacitance and a current of 280 V. Next, the cells were incubated over ice for 10 minutes before adding 10 ml of complete medium. The cells were cultured in this medium in 75 cm^2 culture flasks (Nunc) for 48 hours in a cell incubator at 37° C. with a humidity of 95% and 5% of Co2. At this time, the medium was changed for complete medium with no antibiotics to which hygromycin (Boehringer Mannheim) was added at a concentration of 200 μg/ml. The cells were cultured in this medium for 30 days with successive changes of medium. […] For this, 1×10^6 cells were lysed in 50 μl of lysis buffer (Promega) and with the extracts obtained, the luciferase activity was determined using the reagents contained in the kit of the “Luciferase Assay System” [Promega].
These clones were grown until obtaining at least 1×10^6 cells with which measurement of the luciferase activity could be performed as described earlier. […]

| Compound | expression of the mRNA of cox-2 [1] | increase of the basal values of luciferase activity (cox-2 promoter; three stable clones, treatment of 6 hours, FIG. 7) [times] | inhibition of the stimulation obtained with PMA+Ion (luciferase activity) (cox-2 promoter; stable Jurkat clones, 1 hour pre-treatment with compound, then PMA+Ion for 5 hours, FIGS. 8-10) |
| --- | --- | --- | --- |
| CCCCCCCCCCCCCC(=O)O[C@@H]1[C@@H](C)[C@@]2(O)[C@@H](C=C(CO)C[C@]3(O)C(=O)C(C)=C[C@@H]23)[C@@H]2C(C)(C)[C@]12OC(C)=O [PMA, Phorbol 12-Myristate 13-Acetate] | slight increase | 3 to 6 |  |
| Oc1ccc(C=Cc2cc(O)cc(O)c2)cc1 [Resveratrol] |  |  | produces an inhibition of the stimulation obtained with PMA+Ion |
